According to patent US20250340519A1, “RADIOLABELLED COMPOUND” (OXFORD UNIVERSITY INNOVATION LIMITED, priority 2018, published 2025):
“And” between values parts separate entries of the source, which are not always exact repeats. Identical values can stand only once.

Experiments:
[1] = system: Panc-1 xenograft; experiment: Ex vivo biodistribution in Panc-1 xenograft bearing mice; settings: Panc-1 xenograft mice, 1 h p.i., individual animals
[2] = system: CaNT allograft; experiment: Ex vivo biodistribution in CaNT allograft bearing CBA/Carl mice; settings: for Ex vivo biodistribution Blood / Ex vivo biodistribution Bone / Ex vivo biodistribution Brain / Ex vivo biodistribution Caecum / Ex vivo biodistribution Fat / Ex vivo biodistribution Gallbladder / Ex vivo biodistribution Heart / Ex vivo biodistribution Kidney / Ex vivo biodistribution Large intestine / Ex vivo biodistribution Liver / Ex vivo biodistribution Lung / Ex vivo biodistribution Muscle / Ex vivo biodistribution Pancreas / Ex vivo biodistribution Skin / Ex vivo biodistribution Spleen / Ex vivo biodistribution Stomach / Ex vivo biodistribution Tumour: CaNT allograft mice, 1 h p.i.; for tumour uptake (group mean): CaNT tumours
Protocol: All animal procedures were performed in accordance with the UK Animals (Scientific Procedures) Act 1986 and with local ethical committee approval. Animals were housed in IVC cages in sex-matched groups up to 5 per cage, in an artificial day-night cycle facility, with ad libitum access to food and water. Tumour xenografts or allografts were generated by subcutaneous injection of PANC-1 or Capan-1 cell suspensions in the hind flank of balb/c nu/nu animals. CaNT xenografts were generated by harvesting CaNT tumours from donor animals, and injecting a tumour homogenate subcutaneously in the flank of wild type CBA/Carl mice. Tumours were irradiated (10 Gy, 2 Gy/min) using a 300 kV X-ray device.
Dynamic PET/CT images were acquired following an intravenous bolus administration of [^18F]-olaparib. Biodistribution studies, where selected tissues were harvested, were performed 1 h post injection. Some animals were also administered an excess of cold, unlabelled olaparib for evaluating the specificity of tumour uptake. EF5, a hypoxia-selective marker, was injected 2 h before culling of the animal. Digital autoradiography was performed on tumour sections. Image analysis was performed using PMOD.
The murine adenocarcinoma NT (CaNT) was implanted subcutaneously onto the right thigh of 6-7 week-old female CBA/Carl mice. Fifty μL of a crude cell suspension, prepared by mechanical dissociation of an excised tumor from a donor animal, was injected. Tumors were selected for imaging when the geometric mean diameter reached 6-8 mm (volumes calculated as above), approximately 3 weeks after implantation (Kersemans, V., et al. Hypoxia imaging using PET and SPECT: the effects of anesthetic and carrier gas on [Cu]-ATSM, [Tc]-HL91 and [F]-FMISO tumor hypoxia accumulation. PloS one 6, e25911, 2011).
Two hours prior to PET/CT imaging, animals were exposed to X-irradiation of the tumour (10 Gy or sham) (see schedule in FIG. 13). Radiation was delivered using a Gulmay 320 kV X-irradiator; 2.0 Gy/min. Anaesthesia was maintained at 2.5% isoflurane throughout the duration of the irradiation, and animals were allowed to recover. To study the relationship of PARP1 expression, ^18F-olaparib uptake and hypoxia, animals were administered 0.6 μg in 200 μL (0.9% saline) intraperitoneally, one hour prior to PET/CT imaging. Naïve CBA/Carl mice, not bearing tumours, were not irradiated, nor was EF5 administered.
Dynamic PET/CT images were acquired using a VECTor ^4CT integrated PET/CT system. Mice were anaesthetised by 4% isoflurane gas (0.5 L/min O2) and placed on a custom-built imaging cradle in a prone position. Animals mice were intravenously injected with [^18F]-olaparib or (3-5 MBq, 8-11 GBq/μmol, through a tail vein catheter, and dynamic imaging was performed over 45-60 min after radiolabelled compound administration. PET acquisition (150 s per frame, using list mode acquisition) using an ultra-high resolution rat/mouse 1.8 mm collimator, followed by a cone-beam CT scan (55 kV, 0.19 mA) for anatomical reference and attenuation correction. Anaesthesia was maintained at 2.5% isoflurane throughout the duration of the image acquisition. PET images were reconstructed using U-SPECT-Rec3.22 software (MILabs, Utrecht, The Netherlands), applying a pixel-based algorithm with 8 subsets, 6 iterations and 0.8 mm voxel size for ^18F (energy window settings 477.9-584.1 keV).
After PET/CT image acquisition, animals were euthanized by cervical dislocation and selected organs, tissues and blood were removed. The amount of radioactivity in each organ was measured using a 2480 WIZARD^2 gamma counter (PerkinElmer). Counts per minute were converted into MBq using a calibration curve generated from known standards. Values were decay-corrected to the time of injection, and the percentage of the injected dose per gram (% ID/g) of each tissue was calculated.

[3] = + IR (10 Gy), individual animals
[4] = + block (excess cold olaparib), individual animal
[5] = tracer alone, individual animals

Ex vivo biodistribution Bone ([1]; tracer alone): 3.38 % ID/g and 4.54 % ID/g
Ex vivo biodistribution Blood [2, 3]: 9.79 % ID/g and 3.12 % ID/g
Ex vivo biodistribution Bone [2, 3]: 15.7 % ID/g and 11.5 % ID/g
Ex vivo biodistribution Brain [2, 3]: 0.20 % ID/g and 0.25 % ID/g
Ex vivo biodistribution Caecum [2, 3]: 42.9 % ID/g and 44.6 % ID/g
Ex vivo biodistribution Fat [2, 3]: 2.52 % ID/g and 2.34 % ID/g
Ex vivo biodistribution Gallbladder [2, 3]: 155 % ID/g and 57.3 % ID/g
Ex vivo biodistribution Heart [2, 3]: 8.74 % ID/g and 7.03 % ID/g
Ex vivo biodistribution Kidney [2, 3]: 24.5 % ID/g and 19.0 % ID/g
Ex vivo biodistribution Large intestine [2, 3]: 60.1 % ID/g and 47.0 % ID/g
Ex vivo biodistribution Liver [2, 3]: 93.2 % ID/g and 100 % ID/g
Ex vivo biodistribution Lung [2, 3]: 10.9 % ID/g and 9.61 % ID/g
Ex vivo biodistribution Muscle [2, 3]: 5.45 % ID/g and 5.31 % ID/g
Ex vivo biodistribution Pancreas [2, 3]: 29.5 % ID/g and 23.6 % ID/g
Ex vivo biodistribution Skin [2, 3]: 5.02 % ID/g and 5.12 % ID/g
Ex vivo biodistribution Spleen [2, 3]: 69.0 % ID/g and 58.3 % ID/g
Ex vivo biodistribution Stomach [2, 3]: 9.40 % ID/g and 4.20 % ID/g
Ex vivo biodistribution Tumour [2, 3]: 1.43 % ID/g and 1.92 % ID/g
Ex vivo biodistribution Blood [2, 4]: 4.00 % ID/g
Ex vivo biodistribution Bone [2, 4]: 5.18 % ID/g
Ex vivo biodistribution Brain [2, 4]: 0.22 % ID/g
Ex vivo biodistribution Caecum [2, 4]: 101 % ID/g
Ex vivo biodistribution Fat [2, 4]: 1.57 % ID/g
Ex vivo biodistribution Gallbladder [2, 4]: 194 % ID/g
Ex vivo biodistribution Heart [2, 4]: 2.51 % ID/g
Ex vivo biodistribution Kidney [2, 4]: 8.45 % ID/g
Ex vivo biodistribution Large intestine [2, 4]: 61.2 % ID/g
Ex vivo biodistribution Liver [2, 4]: 74.3 % ID/g
Ex vivo biodistribution Lung [2, 4]: 2.29 % ID/g
Ex vivo biodistribution Muscle [2, 4]: 2.65 % ID/g
Ex vivo biodistribution Pancreas [2, 4]: 3.41 % ID/g
Ex vivo biodistribution Skin [2, 4]: 1.16 % ID/g
Ex vivo biodistribution Spleen [2, 4]: 2.41 % ID/g
Ex vivo biodistribution Stomach [2, 4]: 4.09 % ID/g
Ex vivo biodistribution Tumour [2, 4]: 0.98 % ID/g
Ex vivo biodistribution Blood [2, 5]: 1.78 % ID/g and 8.00 % ID/g
Ex vivo biodistribution Bone [2, 5]: 11.7 % ID/g and 10.2 % ID/g
Ex vivo biodistribution Brain [2, 5]: 0.29 % ID/g and 0.23 % ID/g
Ex vivo biodistribution Caecum [2, 5]: 32.5 % ID/g and 56.2 % ID/g
Ex vivo biodistribution Fat [2, 5]: 7.19 % ID/g and 1.12 % ID/g
Ex vivo biodistribution Gallbladder [2, 5]: 953 % ID/g and 126 % ID/g
Ex vivo biodistribution Heart [2, 5]: 7.34 % ID/g and 0.00 % ID/g
Ex vivo biodistribution Kidney [2, 5]: 23.9 % ID/g and 21.0 % ID/g
Ex vivo biodistribution Large intestine [2, 5]: 24.0 % ID/g and 47.8 % ID/g
Ex vivo biodistribution Liver [2, 5]: 84.6 % ID/g and 110 % ID/g
Ex vivo biodistribution Lung [2, 5]: 12.5 % ID/g and 9.73 % ID/g
Ex vivo biodistribution Muscle [2, 5]: 5.84 % ID/g and 4.63 % ID/g
Ex vivo biodistribution Pancreas [2, 5]: 15.1 % ID/g and 20.8 % ID/g
Ex vivo biodistribution Skin [2, 5]: 3.82 % ID/g and 4.65 % ID/g
Ex vivo biodistribution Spleen [2, 5]: 43.3 % ID/g and 47.0 % ID/g
Ex vivo biodistribution Stomach [2, 5]: 6.17 % ID/g and 12.8 % ID/g
Ex vivo biodistribution Tumour [2, 5]: 1.48 % ID/g and 2.83 % ID/g
tumour uptake (group mean) ([2]; excess cold olaparib): 0.80±0.19 % ID/g
tumour uptake (group mean) ([2]; tracer alone): 1.71±0.59 % ID/g
Structure (SMILES): O=C(c1cc(Cc2n[nH]c(=O)c3ccccc23)ccc1[18F])N1CCN(C(=O)C2CC2)CC1 [[^18F]olaparib]
Ex vivo biodistribution Kidney ([1]; + IR (10 Gy)): 10.0 % ID/g and 9.25 % ID/g and 10.6 % ID/g
Ex vivo biodistribution Large intestine ([1]; + IR (10 Gy)): 27.5 % ID/g and 28.9 % ID/g and 16.2 % ID/g
Ex vivo biodistribution Liver ([1]; + IR (10 Gy)): 25.1 % ID/g and 33.8 % ID/g and 45.7 % ID/g
Ex vivo biodistribution Pancreas ([1]; + IR (10 Gy)): 13.6 % ID/g and 10.3 % ID/g and 11.4 % ID/g
Ex vivo biodistribution Spleen ([1]; + IR (10 Gy)): 45.0 % ID/g and 20.5 % ID/g and 14.3 % ID/g
Ex vivo biodistribution Stomach ([1]; + IR (10 Gy)): 4.15 % ID/g and 0.92 % ID/g and 0.87 % ID/g
Ex vivo biodistribution Bone ([1]; + block (excess cold olaparib)): 1.06 % ID/g and 0.78 % ID/g and 0.80 % ID/g and 0.46 % ID/g
Ex vivo biodistribution Kidney ([1]; + block (excess cold olaparib)): 13.1 % ID/g and 5.09 % ID/g and 3.98 % ID/g and 2.44 % ID/g
Ex vivo biodistribution Large intestine ([1]; + block (excess cold olaparib)): 20.1 % ID/g and 13.3 % ID/g and 61.4 % ID/g and 12.7 % ID/g
Ex vivo biodistribution Liver ([1]; + block (excess cold olaparib)): 29.1 % ID/g and 32.9 % ID/g and 22.4 % ID/g and 23.1 % ID/g
Ex vivo biodistribution Pancreas ([1]; + block (excess cold olaparib)): 1.92 % ID/g and 2.29 % ID/g and 1.91 % ID/g and 1.79 % ID/g
Ex vivo biodistribution Small intestine ([1]; + block (excess cold olaparib)): 89.9 % ID/g and 77.2 % ID/g and 96.4 % ID/g and 132 % ID/g
Ex vivo biodistribution Spleen ([1]; + block (excess cold olaparib)): 1.62 % ID/g and 1.46 % ID/g and 1.24 % ID/g and 0.69 % ID/g
Ex vivo biodistribution Stomach ([1]; + block (excess cold olaparib)): 1.44 % ID/g and 0.79 % ID/g and 0.46 % ID/g and 0.21 % ID/g
Ex vivo biodistribution Kidney ([1]; tracer alone): 10.5 % ID/g and 7.95 % ID/g and 6.02 % ID/g and 7.04 % ID/g and 3.41 % ID/g and 3.66 % ID/g
Ex vivo biodistribution Large intestine ([1]; tracer alone): 12.6 % ID/g and 30.5 % ID/g and 80.8 % ID/g and 27.0 % ID/g and 28.9 % ID/g and 6.61 % ID/g
Ex vivo biodistribution Liver ([1]; tracer alone): 26.2 % ID/g and 34.6 % ID/g and 27.0 % ID/g and 21.0 % ID/g and 13.5 % ID/g and 18.0 % ID/g
Ex vivo biodistribution Pancreas ([1]; tracer alone): 8.49 % ID/g and 9.38 % ID/g and 7.25 % ID/g and 5.52 % ID/g and 2.78 % ID/g and 4.24 % ID/g
Ex vivo biodistribution Small intestine ([1]; tracer alone): 54.5 % ID/g and 58.1 % ID/g and 30.6 % ID/g and 31.9 % ID/g and 18.6 % ID/g and 26.6 % ID/g
Ex vivo biodistribution Spleen ([1]; tracer alone): 17.5 % ID/g and 13.7 % ID/g and 11.3 % ID/g and 14.0 % ID/g and 7.36 % ID/g and 8.01 % ID/g
Ex vivo biodistribution Stomach ([1]; tracer alone): 2.59 % ID/g and 3.53 % ID/g and 1.81 % ID/g and 1.80 % ID/g and 0.55 % ID/g and 0.60 % ID/g
